Laboratory results taken from patent US6777412B2 (priority 1990, dated 2004).
Like-named read-outs stand apart in the source and are kept apart here. Marks after values point to notes of the source that are not given here.

What was measured:
Type in all cases: in vivo
Plasmopara viticola = experiment: Foliar fungal disease test on plants: Plasmopara viticola (Pv)
Description: (§1) The compounds were tested against a variety of foliar fungal diseases of plants. The technique employed was as follows.
(§2) The plants were grown in John Innes Potting Compost (No.1 or 2) in 4 cm diameter minipots. The test compounds were formulated either by bead milling with aqueous Dispersol T or as a solution in acetone or acetone/ethanol which was diluted to the required concentration immediately before use. For the foliage diseases, the formulations (100 ppm active ingredient except where otherwise indicated) were sprayed onto the foliage and applied to the roots of the plants in the soil. The sprays were applied to maximum retention and the root drenches to a final concentration equivalent to approximately 40 ppm a.i. in dry soil. Tween 20, to give a final concentration of 0.05%, was added when the sprays were applied to cereals.
(§3) For most of the tests the compound was applied to the soil (roots) and to the foliage (by spraying) one or two days before the plant was inoculated with the disease. An exception was the test on Erysiphe graminis in which the plants were inoculated 24 hours before treatment. Foliar pathogens were applied by spray as spore suspensions onto the leaves of test plants. After inoculation, the plants were put into an appropriate environment to allow infection to proceed and then incubated until the disease was ready for assessment. The period between inoculation and assessment varied from four to fourteen days according to the disease and environment.
(§4) The disease control vas recorded by the following grading:
(§5) 3=trace-5% of disease on untreated plants
(§6) 2=6-25% of disease on untreated plants
(§7) 1=26-59% of disease on untreated plants
(§8) 0=60-100% of disease on untreated plants

Septoria nodorum = experiment: Foliar fungal disease test on plants: Septoria nodorum (Sn); details: 100 ppm active ingredient foliar spray plus root drench (approx. 40 ppm a.i. in dry soil), one or two days before inoculation
Description: as §1, §2, §3, §4, §5, §6, §7, §8

Pyricularia oryzae = system: Pyricularia oryzae
[1] = system: Erysiphe graminis tritici; experiment: Foliar fungal disease test on plants: Erysiphe graminis tritici (Egt); details: 100 ppm active ingredient foliar spray plus root drench (approx. 40 ppm a.i. in dry soil); plants inoculated 24 hours before treatment
Description: as §1, §2, §3, §4, §5, §6, §7, §8
Egt Erysiphe graminis tritici

[2] = system: Phytophthora infestans lycopersici
Erysiphe graminis hordei = experiment: Foliar fungal disease test on plants: Erysiphe graminis hordei (Egh)
Description: as §1, §2, §3, §4, §5, §6, §7, §8
Egh Erysiphe graminis hordei

Venturia inaequalis = experiment: Foliar fungal disease test on plants: Venturia inaequalis (Vi)
Description: as §1, §2, §3, §4, §5, §6, §7, §8

Puccinia recondita = experiment: Foliar fungal disease test on plants: Puccinia recondita (Pr)
Description: as §1, §2, §3, §4, §5, §6, §7, §8

[3] = 100 ppm active ingredient foliar spray plus root drench (approx. 40 ppm a.i. in dry soil), one or two days before inoculation
[4] = 100 ppm active ingredient foliar spray plus root drench (approx. 40 ppm a.i. in dry soil), plants inoculated 24 hours before treatment

SMILES | disease control grading, Pv (Plasmopara viticola) (Plasmopara viticola; [3]) | disease control grading, Sn (Septoria nodorum) (Septoria nodorum) | disease control grading, Po (Pyricularia oryzae) (Pyricularia oryzae; [3]) | disease control grading, Egt (Erysiphe graminis tritici) [1] | disease control grading, Pil (Phytophthora infestans lycopersici) [2, 3] | disease control grading, Egh (Erysiphe graminis hordei) (Erysiphe graminis hordei; [4]) | disease control grading, Vi (Venturia inaegualis) (Venturia inaequalis; [3]) | disease control grading, Pr (Puccinia recondita) (Puccinia recondita; [3]) | disease control grading, Pv (Plasmopara viticola) (Plasmopara viticola; 10 ppm foliar application only) | disease control grading, Pil (Phytophthora infestans lycopersici) ([2]; 10 ppm foliar application only) | disease control grading, Egh (Erysiphe graminis hordei) (Erysiphe graminis hordei; 10 ppm foliar application only) | disease control grading, Vi (Venturia inaegualis) (Venturia inaequalis; 10 ppm foliar application only) | disease control grading, Pr (Puccinia recondita) (Puccinia recondita; 10 ppm foliar application only) | disease control grading, Po (Pyricularia oryzae) (Pyricularia oryzae; 10 ppm foliar application only)
CO/C=C(/C(=O)OC)c1ccccc1Oc1cc(OCc2ccncn2)ncn1 [250 of Table I] | 4 (4=no disease) | 4 (4=no disease) | 2 (2=6-25% of disease on untreated plants) | 4 (4=no disease) | – | – | – | – | – | – | – | – | – | –
CO/C=C(/C(=O)OC)c1ccccc1Oc1cc(Sc2ccccc2)ncn1 [1 of Table I] | 4 (4=no disease) | – | 4 (4=no disease) | – | 4 (4=no disease) | 4 (4=no disease) | 4 (4=no disease) | 4 (4=no disease) | – | – | – | – | – | –
CO/C=C(/C(=O)OC)c1ccccc1Oc1cc(OCCc2ccccc2C(F)(F)F)ncn1 [363 of Table I] | 4 (4=no disease) | – | 4 (4=no disease) | – | 4 (4=no disease) | 4 (4=no disease) | 4 (4=no disease) | 4 (4=no disease) | – | – | – | – | – | –
CO/C=C(/C(=O)OC)c1ccccc1Oc1cc(OCCOc2c(F)cccc2F)ncn1 [382 of Table I] | 4 (4=no disease) | – | 4 (4=no disease) | – | 4 (4=no disease) | 4 (4=no disease) | 4 (4=no disease) | 4 (4=no disease) | – | – | – | – | – | –
CO/C=C(/C(=O)OC)c1ccccc1Oc1cc(NC(=S)c2ccccc2O)ncn1 [367 of Table I] | – | – | – | – | – | – | – | – | 4^a (4=no disease) | 0^a (0=60-100% of disease on untreated plants) | 3^a (3=trace-5% of disease on untreated plants) | 2^a (2=6-25% of disease on untreated plants) | 4^a (4=no disease) | 0^a (0=60-100% of disease on untreated plants)
CO/C=C(/C(=O)OC)c1ccccc1Oc1cc(OCCc2ccccc2C)ncn1 [364 of Table I] | 4 (4=no disease) | – | 4 (4=no disease) | – | 4 (4=no disease) | 4 (4=no disease) | 4 (4=no disease) | 4 (4=no disease) | – | – | – | – | – | –
CO/C=C(/C(=O)OC)c1ccccc1Oc1cc(OC(C#N)c2ccccc2)ncn1 (stereo not shown) [369 of Table I] | 4 (4=no disease) | – | 4 (4=no disease) | – | 3 (3=trace-5% of disease on untreated plants) | 4 (4=no disease) | 4 (4=no disease) | 4 (4=no disease) | – | – | – | – | – | –
CO/C=C(/C(=O)OC)c1ccccc1Oc1cc(OCCc2ccccc2Cl)ncn1 [368 of Table I] | 4 (4=no disease) | – | 3 (3=trace-5% of disease on untreated plants) | – | 3 (3=trace-5% of disease on untreated plants) | 4 (4=no disease) | 4 (4=no disease) | 4 (4=no disease) | – | – | – | – | – | –
CO/C=C(/C(=O)OC)c1ccccc1Oc1cc(OCCc2ccccc2[N+](=O)[O-])ncn1 [358 of Table I] | 4 (4=no disease) | – | 4 (4=no disease) | – | 4 (4=no disease) | 4 (4=no disease) | 4 (4=no disease) | 4 (4=no disease) | – | – | – | – | – | –
